Earlier results in patent US8703823B2, “Methods for treatment of migraine and symptoms thereof” (priority 2004, dated 2014).

What was measured:
[1] = in vivo
[2] = individuals treated with trimethobenzamide for uncontrolled vomiting

SMILES	Migraine prevention / antimigraine effect [1]	Occurrence of adverse diskinesia side effects [2] [%]
CCN(CC)CCNC(=O)c1cc(Cl)c(N)cc1OC [Metoclopramide, metoclopramide]	exerted an antimigraine effect	–
COc1cc(N)c(Cl)cc1C(=O)NC1CCN(CCCOc2ccc(F)cc2)CC1OC (stereo not drawn) [cisapride]	ineffective	–
COc1cc(C(=O)NCc2ccc(OCCN(C)C)cc2)cc(OC)c1OC.Cl [trimethobenzamide, N-[p-[2-(dimethylamino)ethoxy]benzyl]-3,4,5-trimethoxybenzamide monohydrochloride]	–	< 2
